Results: ChEMBL document CHEMBL6092179, “Discovery of CLKs inhibitors for the treatment of non-small cell lung cancer” (Eur J Med Chem, 2024)
Calls of active or inactive are those of the source. The rule behind the calls is not given here.

Legend:
NCI-H1299 [1] = assay: Induction of autophagy in human NCI-H1299 cells assessed as effect on LC3I protein expression at 0.1 to 1 uM incubated for 48 hrs by Western blotting analysis; assay type: functional, cell-based; details: dose 0.1-1 µM
[2] = molecular target: Dual specificity protein kinase CLK3 (Homo sapiens, UniProt P49761); assay: Inhibition of CLK3 (unknown origin) by ADP-Glo assay
Dual specificity protein kinase CLK3, sequence (P49761 whole entry): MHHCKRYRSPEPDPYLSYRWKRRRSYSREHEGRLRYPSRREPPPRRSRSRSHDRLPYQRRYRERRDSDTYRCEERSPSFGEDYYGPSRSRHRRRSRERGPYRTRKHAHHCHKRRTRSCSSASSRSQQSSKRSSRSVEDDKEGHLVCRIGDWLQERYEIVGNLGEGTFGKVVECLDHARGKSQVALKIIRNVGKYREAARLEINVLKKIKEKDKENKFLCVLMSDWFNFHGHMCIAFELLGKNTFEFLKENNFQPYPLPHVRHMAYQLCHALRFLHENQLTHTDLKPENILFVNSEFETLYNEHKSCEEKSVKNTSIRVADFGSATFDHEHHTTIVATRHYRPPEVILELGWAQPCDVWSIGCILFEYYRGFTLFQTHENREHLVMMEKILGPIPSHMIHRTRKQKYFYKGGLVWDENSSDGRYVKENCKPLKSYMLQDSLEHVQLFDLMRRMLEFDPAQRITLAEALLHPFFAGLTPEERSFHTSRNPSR

NCI-H1299 [3] = assay: Induction of apoptosis in human NCI-H1299 cells assessed as early apoptotic cells at 0.5 uM incubated for 24 hrs by annexin V-FITC/PI staining based flow cytometric analysis (reference value: 0.49 %); assay type: functional
NCI-H1299 [4] = assay: Inhibition of AKT phosphorylation in human NCI-H1299 cells at 0.1 to 1 uM incubated for 12 hrs by Western blotting analysis; assay type: cell-based; details: dose 0.1-1 µM
NCI-H1299 [5] = assay: Induction of apoptosis in human NCI-H1299 cells assessed as early apoptotic cells at 0.1 uM incubated for 24 hrs by annexin V-FITC/PI staining based flow cytometric analysis (reference value: 0.49 %); assay type: functional
NCI-H1299 [6] = assay: Induction of apoptosis in human NCI-H1299 cells assessed as necrotic cells at 0.1 uM incubated for 24 hrs by annexin V-FITC/PI staining based flow cytometric analysis (reference value: 2.28 %); assay type: functional
NCI-H1299 [7] = assay: Induction of apoptosis in human NCI-H1299 cells assessed as downregulation of MCL-1 expression at 0.1 to 1 uM incubated for 48 hrs by Western blotting analysis; assay type: functional, cell-based; details: dose 0.1-1 µM
NCI-H1299 [8] = assay: Induction of apoptosis in human NCI-H1299 cells assessed as viable cells at 0.1 uM incubated for 24 hrs by annexin V-FITC/PI staining based flow cytometric analysis (reference value: 95 %); assay type: functional; details: read-out: Activity
[9] = molecular target: T1, Dual specificity protein kinase CLK1 (Homo sapiens, UniProt P49759); assay: Inhibition of CLK in human NCI-H1299 cells assessed as downregulation of SRSF6 phosphorylation at 0.1 to 1 uM incubated for 1 hr by Western blotting analysis; assay type: cell-based; details: dose 0.1-1 µM
Target sequence in this assay (P49759 whole entry, looked up): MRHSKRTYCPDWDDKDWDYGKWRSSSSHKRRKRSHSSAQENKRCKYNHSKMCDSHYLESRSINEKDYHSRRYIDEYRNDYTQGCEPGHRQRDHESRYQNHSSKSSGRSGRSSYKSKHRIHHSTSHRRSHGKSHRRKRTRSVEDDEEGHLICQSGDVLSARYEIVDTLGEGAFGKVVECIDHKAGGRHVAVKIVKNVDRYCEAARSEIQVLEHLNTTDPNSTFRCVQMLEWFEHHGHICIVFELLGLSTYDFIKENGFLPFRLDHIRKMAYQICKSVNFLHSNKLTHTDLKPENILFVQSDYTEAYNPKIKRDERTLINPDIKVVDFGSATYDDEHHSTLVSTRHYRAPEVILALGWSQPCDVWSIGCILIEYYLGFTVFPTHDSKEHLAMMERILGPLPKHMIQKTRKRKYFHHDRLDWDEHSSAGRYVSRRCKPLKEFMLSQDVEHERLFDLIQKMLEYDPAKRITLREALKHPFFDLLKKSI

[10] = molecular target: T1, Dual specificity protein kinase CLK1; assay: Inhibition of CLK in human NCI-H1299 cells assessed as downregulation of SRSF5 phosphorylation at 0.1 to 1 uM incubated for 1 hr by Western blotting analysis; assay type: cell-based; details: dose 0.1-1 µM
Target sequence in this assay (P49759 whole entry, looked up): as above

NCI-H1299 [11] = assay: Induction of apoptosis in human NCI-H1299 cells assessed as viable cells at 1 uM incubated for 24 hrs by annexin V-FITC/PI staining based flow cytometric analysis (reference value: 95 %); assay type: functional; details: read-out: Activity
NCI-H1299 [12] = assay: Induction of apoptosis in human NCI-H1299 cells at 0.1 to 2.5 uM incubated for 24 hrs by annexin V-FITC/PI staining based flow cytometric analysis relative to control; assay type: functional; details: dose 0.1-2.5 µM
HCC827 = assay: cells; details: Homo sapiens, HCC827, 48 h
Description: Antiproliferative activity against human HCC827 cells assessed as inhibition of cell growth incubated for 48 hrs by MTT assay

NCI-H1299 [13] = assay: Induction of apoptosis in human NCI-H1299 cells assessed as late apoptotic cells at 0.25 uM incubated for 24 hrs by annexin V-FITC/PI staining based flow cytometric analysis (reference value: 2.23 %); assay type: functional
NCI-H1299 [14] = assay: Induction of apoptosis in human NCI-H1299 cells assessed as viable cells at 0.25 uM incubated for 24 hrs by annexin V-FITC/PI staining based flow cytometric analysis (reference value: 95 %); assay type: functional; details: read-out: Activity
NCI-H1299 [15] = assay: Induction of apoptosis in human NCI-H1299 cells assessed as necrotic cells at 0.5 uM incubated for 24 hrs by annexin V-FITC/PI staining based flow cytometric analysis (reference value: 2.28 %); assay type: functional
[16] = molecular target: T1, Dual specificity protein kinase CLK1; assay: Inhibition of CLK1 (unknown origin) by ADP-Glo assay
Target sequence in this assay (P49759 whole entry): as the sequence (P49759 whole entry, looked up) above

[17] = system: Osimertinib-resistant NCI-H1975 cell; assay: cells; details: Homo sapiens, 96 h
Description: Antiproliferative activity against human Osimertinib-resistant NCI-H1975 cell cultured as 3D spheroids assessed as inhibition of cell growth incubated for 96 hrs by CellTiter-Glo luminescence assay

NCI-H1299 [18] = assay: Induction of autophagy in human NCI-H1299 cells assessed as effect on LC3II protein expression at 0.1 to 1 uM incubated for 48 hrs by Western blotting analysis; assay type: functional, cell-based; details: dose 0.1-1 µM
NCI-H1299 [19] = assay: Induction of apoptosis in human NCI-H1299 cells assessed as late apoptotic cells at 2.5 uM incubated for 24 hrs by annexin V-FITC/PI staining based flow cytometric analysis (reference value: 2.23 %); assay type: functional
[20] = molecular target: T2, Dual specificity protein kinase CLK4 (Homo sapiens, UniProt Q9HAZ1); assay: Inhibition of CLK4 (unknown origin) at 100 nM by ADP-Glo assay relative to control
Target sequence in this assay (Q9HAZ1 whole entry, looked up): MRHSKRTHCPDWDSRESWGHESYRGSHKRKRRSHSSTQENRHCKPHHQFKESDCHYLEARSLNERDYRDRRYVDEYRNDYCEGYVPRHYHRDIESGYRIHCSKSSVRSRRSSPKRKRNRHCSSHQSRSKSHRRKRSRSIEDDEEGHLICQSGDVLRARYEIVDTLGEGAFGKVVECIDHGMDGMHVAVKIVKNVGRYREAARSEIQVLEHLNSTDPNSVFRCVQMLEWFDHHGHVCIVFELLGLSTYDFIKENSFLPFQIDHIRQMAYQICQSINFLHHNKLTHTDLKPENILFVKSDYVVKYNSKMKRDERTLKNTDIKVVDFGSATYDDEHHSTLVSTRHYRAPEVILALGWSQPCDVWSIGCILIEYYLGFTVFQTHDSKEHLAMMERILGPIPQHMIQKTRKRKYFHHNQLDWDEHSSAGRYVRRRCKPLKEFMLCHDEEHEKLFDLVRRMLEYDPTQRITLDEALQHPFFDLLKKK

NCI-H1299 [21] = assay: Induction of apoptosis in human NCI-H1299 cells assessed as downregulation of mTOR expression incubated for 12 hrs by Western blotting analysis; assay type: functional, cell-based
NCI-H1299 [22] = assay: Induction of apoptosis in human NCI-H1299 cells assessed as late apoptotic cells at 1 uM incubated for 24 hrs by annexin V-FITC/PI staining based flow cytometric analysis (reference value: 2.23 %); assay type: functional
NCI-H1299 [23] = assay: cells; details: Homo sapiens, NCI-H1299, 48 h
Description: Antiproliferative activity against human NCI-H1299 cells assessed as inhibition of cell growth incubated for 48 hrs by MTT assay

NCI-H1299 [24] = assay: Induction of apoptosis in human NCI-H1299 cells assessed as early apoptotic cells at 0.25 uM incubated for 24 hrs by annexin V-FITC/PI staining based flow cytometric analysis (reference value: 0.49 %); assay type: functional
NCI-H1299 [25] = assay: Induction of apoptosis in human NCI-H1299 cells assessed as viable cells at 0.5 uM incubated for 24 hrs by annexin V-FITC/PI staining based flow cytometric analysis (reference value: 95 %); assay type: functional; details: read-out: Activity
NCI-H1299 [26] = assay: Induction of apoptosis in human NCI-H1299 cells assessed as late apoptotic cells at 0.5 uM incubated for 24 hrs by annexin V-FITC/PI staining based flow cytometric analysis (reference value: 2.23 %); assay type: functional
NCI-H1299 [27] = assay: Induction of apoptosis in human NCI-H1299 cells assessed as necrotic cells at 0.25 uM incubated for 24 hrs by annexin V-FITC/PI staining based flow cytometric analysis (reference value: 2.28 %); assay type: functional
[28] = molecular target: T1, Dual specificity protein kinase CLK1; assay: Inhibition of CLK in human NCI-H1299 cells assessed as downregulation of SRSF4 phosphorylation at 0.1 to 1 uM incubated for 1 hr by Western blotting analysis; assay type: cell-based; details: dose 0.1-1 µM
Target sequence in this assay (P49759 whole entry, looked up): as the sequence (P49759 whole entry, looked up) above

NCI-H1299 [29] = assay: Induction of apoptosis in human NCI-H1299 cells assessed as early apoptotic cells at 2.5 uM incubated for 24 hrs by annexin V-FITC/PI staining based flow cytometric analysis (reference value: 0.49 %); assay type: functional
[30] = molecular target: T2, Dual specificity protein kinase CLK4; assay: Inhibition of CLK4 (unknown origin) by ADP-Glo assay
Target sequence in this assay (Q9HAZ1 whole entry): as the sequence (Q9HAZ1 whole entry, looked up) above

NCI-H1975 = assay: cells; details: Homo sapiens, NCI-H1975, 48 h
Description: Antiproliferative activity against human NCI-H1975 cells assessed as inhibition of cell growth incubated for 48 hrs by MTT assay

NCI-H1299 [31] = assay: Inhibition of colony formation in human NCI-H1299 cells incubated for 7 days by crystal violet staining based analysis; assay type: functional, cell-based; details: time 7.0 day
[32] = molecular target: Dual specificity tyrosine-phosphorylation-regulated kinase 1B (Homo sapiens) (UniProt Q9Y463); assay: Inhibition of DYRK1B (unknown origin) at 100 nM by ADP-Glo assay relative to control
Dual specificity tyrosine-phosphorylation-regulated kinase 1B (Homo sapiens), sequence (Q9Y463 whole entry, looked up): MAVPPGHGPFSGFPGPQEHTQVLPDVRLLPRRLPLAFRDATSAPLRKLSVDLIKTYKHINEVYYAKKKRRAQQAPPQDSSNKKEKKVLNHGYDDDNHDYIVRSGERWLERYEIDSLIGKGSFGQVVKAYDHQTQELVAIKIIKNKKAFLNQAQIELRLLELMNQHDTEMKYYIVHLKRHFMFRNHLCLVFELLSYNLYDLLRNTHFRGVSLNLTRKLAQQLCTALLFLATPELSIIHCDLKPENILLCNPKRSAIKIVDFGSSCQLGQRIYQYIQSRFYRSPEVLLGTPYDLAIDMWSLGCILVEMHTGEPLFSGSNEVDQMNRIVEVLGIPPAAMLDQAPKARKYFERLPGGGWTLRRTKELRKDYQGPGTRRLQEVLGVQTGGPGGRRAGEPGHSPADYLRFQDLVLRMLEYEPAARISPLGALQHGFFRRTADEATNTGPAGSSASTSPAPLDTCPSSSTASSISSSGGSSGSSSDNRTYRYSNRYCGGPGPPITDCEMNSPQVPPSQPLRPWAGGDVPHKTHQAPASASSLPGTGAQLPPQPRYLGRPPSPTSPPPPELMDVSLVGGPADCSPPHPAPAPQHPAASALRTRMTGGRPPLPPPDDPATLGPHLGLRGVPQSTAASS

NCI-H1299 [33] = assay: Induction of apoptosis in human NCI-H1299 cells assessed as early apoptotic cells at 1 uM incubated for 24 hrs by annexin V-FITC/PI staining based flow cytometric analysis (reference value: 0.49 %); assay type: functional
A549 = assay: cells; details: Homo sapiens, A549, 48 h
Description: Antiproliferative activity against human A549 cells assessed as inhibition of cell growth incubated for 48 hrs by MTT assay

IC50 [2]: 28.7 nM | IC50 (HCC827): 160 nM | IC50 [16]: 4.6 nM | IC50 [17]: 238 nM | inhibition [20]: 95% | IC50 (NCI-H1299 [23]): 130 nM | IC50 [30]: 7.3 nM | IC50 (NCI-H1975): 150 nM | inhibition [32]: 84.4% | IC50 (A549): 170 nM
SMILES: FC1(F)CCN(Cc2cncc(-c3ccc4[nH]nc(-c5nc(-c6ccco6)c(-c6ccco6)[nH]5)c4c3)c2)C1
Activity (NCI-H1299 [1]): Active | Activity (NCI-H1299 [3]): 8.27% | inhibition (NCI-H1299 [4]): Active | Activity (NCI-H1299 [5]): 1.45% | Activity (NCI-H1299 [6]): 1.1% | Activity (NCI-H1299 [7]): Active | viability at 0.1 µM (NCI-H1299 [8]): 96.2% | inhibition [9]: Active; Showed Stronger Inhibition Compared To Indazole 1 | inhibition [10]: Active; Showed Stronger Inhibition Compared To Indazole 1 | viability at 1 µM (NCI-H1299 [11]): 84.3% | Activity (NCI-H1299 [12]): 3.7% | Activity (NCI-H1299 [13]): 2.55% | viability at 0.25 µM (NCI-H1299 [14]): 92.1% | Activity (NCI-H1299 [15]): 0.89% | Activity (NCI-H1299 [18]): Active | Activity (NCI-H1299 [19]): 6.71% | Activity (NCI-H1299 [21]): Dose-dependent-effect | Activity (NCI-H1299 [22]): 5.23% | Activity (NCI-H1299 [24]): 3.57% | viability at 0.5 µM (NCI-H1299 [25]): 85.7% | Activity (NCI-H1299 [26]): 5.16% | Activity (NCI-H1299 [27]): 1.78% | inhibition [28]: Active; Showed Stronger Inhibition Compared To Indazole 1 | Activity (NCI-H1299 [29]): 9.7% | inhibition (NCI-H1299 [31]): Dose-dependent-effect | Activity (NCI-H1299 [33]): 9.75%
